Here are results for nine compounds from article PMC8836281, “Characterisation of Endogenous Peptides Present in Virgin Olive Oil” (International Journal of Molecular Sciences, 2022).

Like-named read-outs stand apart in the source and are kept apart here. Residues, ends and D or L forms follow the SMILES beside them. No end group written: not given here.

One assay concerns the target T1, rabbit-lung ACE (Oryctolagus cuniculus, UniProt P12822).
T1 construct: rabbit-lung ACE (E.C.3.4.15.1., Sigma-Aldrich); purchased Sigma-Aldrich; host or cells: rabbit lung (tissue-derived enzyme)
T1 sequence (P12822 34-1310): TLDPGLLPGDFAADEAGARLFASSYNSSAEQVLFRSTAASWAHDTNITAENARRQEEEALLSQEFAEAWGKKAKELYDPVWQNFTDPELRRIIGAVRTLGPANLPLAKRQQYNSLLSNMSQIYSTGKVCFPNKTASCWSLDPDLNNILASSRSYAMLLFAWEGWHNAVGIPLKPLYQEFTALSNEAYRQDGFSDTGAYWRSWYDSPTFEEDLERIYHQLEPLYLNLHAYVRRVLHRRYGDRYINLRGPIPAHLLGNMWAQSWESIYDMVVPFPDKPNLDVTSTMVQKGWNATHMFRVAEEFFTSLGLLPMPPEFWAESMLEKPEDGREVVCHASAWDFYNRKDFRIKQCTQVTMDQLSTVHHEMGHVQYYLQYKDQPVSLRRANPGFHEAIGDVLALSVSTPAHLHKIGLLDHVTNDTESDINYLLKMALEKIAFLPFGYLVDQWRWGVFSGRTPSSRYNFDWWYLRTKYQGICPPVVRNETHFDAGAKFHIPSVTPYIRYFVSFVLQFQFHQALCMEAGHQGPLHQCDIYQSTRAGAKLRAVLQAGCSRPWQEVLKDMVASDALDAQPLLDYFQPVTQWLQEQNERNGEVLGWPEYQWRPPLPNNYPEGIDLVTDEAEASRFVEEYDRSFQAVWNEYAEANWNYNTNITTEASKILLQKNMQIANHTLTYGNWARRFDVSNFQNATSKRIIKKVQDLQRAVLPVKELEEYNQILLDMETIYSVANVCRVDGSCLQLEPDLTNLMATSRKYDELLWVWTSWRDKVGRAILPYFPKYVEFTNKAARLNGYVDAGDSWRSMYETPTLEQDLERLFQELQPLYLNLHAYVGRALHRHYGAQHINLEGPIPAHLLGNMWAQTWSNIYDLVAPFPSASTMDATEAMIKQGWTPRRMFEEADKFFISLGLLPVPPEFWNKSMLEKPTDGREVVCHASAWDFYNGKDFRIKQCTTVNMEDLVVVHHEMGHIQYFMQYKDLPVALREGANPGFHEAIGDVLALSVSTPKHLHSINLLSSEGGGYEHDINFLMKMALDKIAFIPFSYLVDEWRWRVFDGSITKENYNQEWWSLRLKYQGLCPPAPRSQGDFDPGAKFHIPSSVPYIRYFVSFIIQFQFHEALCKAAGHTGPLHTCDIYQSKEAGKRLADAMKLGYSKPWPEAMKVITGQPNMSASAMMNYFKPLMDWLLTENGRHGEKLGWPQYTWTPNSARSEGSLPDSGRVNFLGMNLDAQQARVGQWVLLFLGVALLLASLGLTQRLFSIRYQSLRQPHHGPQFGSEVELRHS
In words: ACE-inhibitory activity of synthetic peptides (fluorescence assay, substrate Abz-Gly-Phe(NO2)-Pro). It is filed as biochemical. Particulars: means ± SD of three different experiments, ND = not detected, read-out: ACEi Activity IC50 (µM) ± SD. The method, then: The ACE-inhibitory activity of the synthetic peptides was determined according to the method described in [84], with some modifications. This assay is based on the ability of ACE to hydrolyse the substrate o-aminobenzoylglycyl-p-nitrophenylalanyl-proline (Abz-Gly-Phe-(NO2)-Pro, Bachem Feinchemikalien, Bubendorf, Switzerland), producing the fluorescent product o-aminobenzoylglycine (Abz-Gly). Reagents used include: buffer A: 150 mM Tris-HCl buffer (pH 8.3), with 0.1 µM ZnCl2; buffer B: 150 mM de Tris-HCl buffer (pH 8.4), with 1125 mM NaCl; ACE solution (stock): rabbit-lung ACE (E.C.3.4.15.1., Sigma-Aldrich), dissolved in buffer A containing 50% glycerol to make an enzyme concentration of 1 U/mL. This solution was diluted 1/20 with buffer A to obtain the working solution (50 mU/mL), which was prepared fresh every day to conduct the experiment. The substrate solution (Abz-Gly-Phe(NO2)-Pro) was dissolved in buffer B to a final concentration of 0.45 mM. This solution was also prepared every day before its use and was protected from light and kept at 4 °C. The assay was carried out using a fluorescence technique. Black polystyrene plates of 96 wells (Thermo Scientific, Waltham, Massachussets, USA) were used. The wells contained the following reaction solutions: control = 50 μL of Milli-Q water and 50 μL of ACE solution; blank = 50 μL of Milli-Q water and 50 μL of buffer A; sample = 50 μL of sample and 50 μL of ACE solution; sample blank = 50 μL of sample and 50 μL of buffer A. The enzymatic reaction was initiated by adding 200 μL (final volume in each well 300 μL) of substrate solution, and the plate was immediately mixed and incubated at 37 °C in a VICTORX5 fluorometer (PerkinElmer, USA). The fluorescence generated was measured after 30 min using 355 and 420 nm as excitation and emission wavelengths, respectively. The ACE-inhibitory activity of each sample was determined in triplicate. The ACE-inhibitory activity was calculated using the following formula: ACE inhibitory activity (%)=(FC−FB)−(FS−FBs)/FC−FB × 100 where FC (control) is the fluorescence emitted after the action of ACE on the substrate, without inhibitor (i.e., sample); FB (blank) is the fluorescence emitted by the substrate; FS (sample) is the fluorescence emitted after the action of ACE on the substrate, with inhibitor sample; and FBs (blank sample) are the fluorescences emitted by the substrate and the sample.
The ACE-inhibitory activity is expressed as IC50, which is the concentration of inhibitor required to inhibit the activity of ACE by 50%.

For assay [1] the following is noted: cited from earlier work.
The test system of assay [2] is pre- or hypertensive humans. On the set-up: method as in PMID 25608938. Particulars: supplementation of pre- or hypertensive humans for longer than four weeks; meta-analysis of 30 trials; cited from earlier work.
The test system of the next assay is ACE. The settings on record: read-out: ACE inhibition IC50, cited from earlier work.

What is called IC50 is the concentration that inhibits the measured activity by half. `CC(C)[C@H](NC(=O)[C@H](CO)NC(=O)[C@H](Cc1ccc(O)cc1)NC(=O)[C@H](CS)NC(=O)[C@@H](N)CS)C(=O)N[C@@H](Cc1ccc(O)cc1)C(=O)O` [Peptide no. 1 de novo, CCYSVY] (H-CCYSVY-OH): the IC50 at rabbit-lung ACE turned out to be 25.6 ± 0.41 µM.
Consider `N[C@@H](CCC(=O)N[C@@H](CS)C(=O)NCC(=O)O)C(=O)O` [glutathione], for which the “antioxidant activity (TEAC)” value in assay [1] was 0.9 TEAC.
As for CPANGFY [Peptide no. 19, CPANGFY], the IC50 on rabbit-lung ACE amounted to 3.76 ± 0.39 µM.
Same read-out and setting: as for DCHYFL [Peptide no. 2 de novo, DCHYFL], the figure is 41.5 ± 2.09 µM.
For the compound IPP, the “effect on systolic and diastolic blood pressure” value in assay [2] is “significant reduction in systolic and diastolic blood pressure”. For the same compound, the IC50 in the assay with ACE (peptides described in dairy) was 5 µM.
As for NALLCSNS [compound 18], on rabbit-lung ACE, the IC50 came to 0.98 ± 0.04 µM.
In the case of SVY, in the assay on ACE (C-terminal di-/tripeptide of de novo peptide no. 1), the IC50 is 8.1 µM.
Regarding VCGEAFGKA [Peptide no. 14], the IC50 at rabbit-lung ACE was 57.2 ± 4.31 µM.
As for VPP, the “effect on systolic and diastolic blood pressure” value in assay [2] is “significant reduction in systolic and diastolic blood pressure”. The IC50 in the assay with ACE (peptides described in dairy) is 9 µM.
